According to patent publication US11292796B2 (SIGNAL PHARMACEUTICALS, LLC, priority 2008, dated 2022):

Target: T1, mTOR (Homo sapiens, UniProt P42345)
T1 construct: purchased Invitrogen PR8683A
Assay: mTOR HTR-FRET assay
Assay type: biochemical
Conditions: read-out: Act. Level (IC50 in mTor HTR-FRET assay)
Summary of the method: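 Test compounds, taken from 10 mM DMSO stocks and diluted, were mixed with mTOR enzyme (0.200 μg/mL) in Tris buffer pH 7.4 with 100 mM NaCl, 0.1% Tween-20 and 1 mM DTT. ATP/substrate addition initiated the reaction, alongside compound-free controls.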

T1 sequence (P42345 1360-2549 limits assumed): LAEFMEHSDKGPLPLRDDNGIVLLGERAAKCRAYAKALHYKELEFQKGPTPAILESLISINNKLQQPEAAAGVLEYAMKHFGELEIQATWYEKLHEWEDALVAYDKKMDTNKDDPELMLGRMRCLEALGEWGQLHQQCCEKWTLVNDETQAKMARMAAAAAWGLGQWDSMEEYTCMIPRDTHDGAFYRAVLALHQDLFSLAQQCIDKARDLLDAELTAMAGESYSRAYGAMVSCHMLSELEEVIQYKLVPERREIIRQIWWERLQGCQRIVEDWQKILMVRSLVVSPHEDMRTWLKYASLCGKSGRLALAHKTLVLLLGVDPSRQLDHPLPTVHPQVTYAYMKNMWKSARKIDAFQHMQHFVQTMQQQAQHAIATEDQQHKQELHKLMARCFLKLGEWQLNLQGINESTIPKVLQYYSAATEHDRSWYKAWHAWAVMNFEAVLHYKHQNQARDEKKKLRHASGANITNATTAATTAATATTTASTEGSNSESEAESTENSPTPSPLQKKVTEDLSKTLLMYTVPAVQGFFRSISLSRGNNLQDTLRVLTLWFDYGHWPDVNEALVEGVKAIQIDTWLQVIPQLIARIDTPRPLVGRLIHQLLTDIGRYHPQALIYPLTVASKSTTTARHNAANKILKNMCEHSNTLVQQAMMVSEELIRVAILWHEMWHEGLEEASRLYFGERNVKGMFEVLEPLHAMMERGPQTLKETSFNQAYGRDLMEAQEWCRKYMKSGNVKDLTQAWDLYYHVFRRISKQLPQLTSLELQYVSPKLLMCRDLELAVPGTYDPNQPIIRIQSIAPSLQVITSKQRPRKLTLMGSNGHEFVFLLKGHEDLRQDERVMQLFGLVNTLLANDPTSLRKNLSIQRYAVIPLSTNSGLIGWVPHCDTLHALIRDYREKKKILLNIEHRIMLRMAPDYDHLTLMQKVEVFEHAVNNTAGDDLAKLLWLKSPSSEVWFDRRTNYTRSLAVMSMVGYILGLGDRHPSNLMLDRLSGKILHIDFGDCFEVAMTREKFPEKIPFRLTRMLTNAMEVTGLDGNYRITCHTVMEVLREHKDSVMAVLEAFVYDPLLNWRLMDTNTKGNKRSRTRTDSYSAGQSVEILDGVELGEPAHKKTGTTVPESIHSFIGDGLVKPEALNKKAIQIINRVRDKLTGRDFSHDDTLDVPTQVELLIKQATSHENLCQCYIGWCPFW

Work on `Cc1cc(-c2nnc[nH]2)ccc1-c1cnc2c(n1)N(CC1CCOCC1)C1(CCCC1)C(=O)N2` [Example 61, 7′-(2-methyl-4-(4H-1,2,4-triazol-3-yl)phenyl)-1′-((tetrahydro-2H-pyran-4-yl)methyl)-1′H-spiro[cyclopentane-1,2′-pyrazino[2,3-b]pyrazin]-3′(4′H)-one] yielded an IC50 of 0.005 to 250 nM.

`Cc1nc(-c2nnc[nH]2)ccc1-c1cnc2c(n1)N(CCC1CCOCC1)C(C)(C)C(=O)N2` [Example 80, 3,3-dimethyl-6-(2-methyl-6-(4H-1,2,4-triazol-3-yl)pyridin-3-yl)-4-(2-(tetrahydro-2H-pyran-4-yl)ethyl)-3,4-dihydropyrazino[2,3-b]pyrazin-2(1H)-one] gave an IC50 of 0.005 to 250 nM.

Work on `CC(C)(O)c1ccc(-c2cnc3c(n2)N([C@H]2CC[C@H](O)CC2)CC(=O)N3)cn1` [Example 101, 4-(trans-4-hydroxycyclohexyl)-6-(6-(2-hydroxypropan-2-yl)pyridin-3-yl)-3,4-dihydropyrazino[2,3-b]pyrazin-2(1H)-one] yielded an IC50 of 0.005 to 250 nM.

In the case of `CO[C@H]1CC[C@H](N2C(=O)CNc3ncc(-c4ccc(C(C)(C)O)[n+]([O-])c4)nc32)CC1` [Example 198, 2-(2-hydroxypropan-2-yl)-5-(8-(trans-4-methoxycyclohexyl)-7-oxo-5,6,7,8-tetrahydropyrazino[2,3-b]pyrazin-2-yl)pyridine 1-oxide], the IC50 is reported as 1000 to 10000 nM.

`CO[C@H]1CC[C@H](N2C(=O)CNc3ncc(-c4ccc(C(C)(C)O)nc4)nc32)C1` [Example 210, 7-(6-(2-hydroxypropan-2-yl)pyridin-3-yl)-1-((1S,3S)-3-methoxycyclopentyl)-3,4-dihydropyrazino[2,3-b]pyrazin-2(1H)-one] showed an IC50 of 0.005 to 250 nM.

In the case of `O=C1CNc2ncc(-c3c[nH]c4ncccc34)nc2N1CCC1CCOCC1` [Example 152, 7-(1H-pyrrolo[2,3-b]pyridin-3-yl)-1-(2-(tetrahydro-2H-pyran-4-yl)ethyl)-3,4-dihydropyrazino[2,3-b]pyrazin-2(1H)-one], the IC50 is reported as 0.005 to 250 nM.

`O=C1CNc2ncc(-c3ccncc3)nc2N1CCC1CCOCC1` [Example 195, 7-(pyridin-4-yl)-1-(2-(tetrahydro-2H-pyran-4-yl)ethyl)-3,4-dihydropyrazino[2,3-b]pyrazin-2(1H)-one] gave an IC50 of 1000 to 10000 nM.

For `CO[C@H]1CC[C@H](N2CC(=O)Nc3ncc(-c4ccc(C(C)(C)O)nc4C)nc32)CC1` [Example 82, 6-(6-(2-hydroxypropan-2-yl)-2-methylpyridin-3-yl)-4-(trans-4-methoxycyclohexyl)-3,4-dihydropyrazino[2,3-b]pyrazin-2(1H)-one], the IC50 was 250 to 500 nM.

`CO[C@H]1CC[C@H](N2CC(=O)Nc3ncc(-c4ccc(-c5nc[nH]n5)c(F)c4C)nc32)CC1` [Example 29, 6-(3-fluoro-2-methyl-4-(1H-1,2,4-triazol-3-yl)phenyl)-4-(trans-4-methoxycyclohexyl)-3,4-dihydropyrazino[2,3-b]pyrazin-2(1H)-one] gave an IC50 of 0.005 to 250 nM.

`Cc1cc(-c2nnc[nH]2)ncc1-c1cnc2c(n1)N(CC1CCOCC1)C(C)(C)C(=O)N2` [Example 50, 3,3-dimethyl-6-(4-methyl-6-(4H-1,2,4-triazol-3-yl)pyridin-3-yl)-4-((tetrahydro-2H-pyran-4-yl)methyl)-3,4-dihydropyrazino[2,3-b]pyrazin-2(1H)-one] gave an IC50 of 0.005 to 250 nM.

`O=C1CNc2ncc(-c3ccc(-c4nnc[nH]4)c(F)c3)nc2N1CCC1CCOCC1` [Example 243, 7-(3-fluoro-4-(4H-1,2,4-triazol-3-yl)phenyl)-1-(2-(tetrahydro-2H-pyran-4-yl)ethyl)-3,4-dihydropyrazino[2,3-b]pyrazin-2(1H)-one] showed an IC50 of 0.005 to 250 nM.

`CC(C)(O)c1ccc(-c2cnc3c(n2)N(CCN2CCOCC2)CC(=O)N3)cn1` [Example 123, 6-(6-(2-hydroxypropan-2-yl)pyridin-3-yl)-4-(2-morpholinoethyl)-3,4-dihydropyrazino[2,3-b]pyrazin-2(1H)-one] showed an IC50 of 1000 to 10000 nM.

For `CO[C@H]1CC[C@H](CN2CC(=O)Nc3ncc(-c4ccc(-c5nc[nH]n5)nc4)nc32)CC1` [Example 5], the IC50 was 0.005 to 250 nM.

With `Cc1cc(-c2nnc[nH]2)ccc1-c1cnc2c(n1)N(CCC1CCOCC1)C(C)(C)C(=O)N2` [Example 84, 3,3-dimethyl-6-(2-methyl-4-(4H-1,2,4-triazol-3-yl)phenyl)-4-(2-(tetrahydro-2H-pyran-4-yl)ethyl)-3,4-dihydropyrazino[2,3-b]pyrazin-2(1H)-one] the IC50 was 0.005 to 250 nM.

`CO[C@@H]1CC[C@H](CN2CC(=O)Nc3ncc(-c4ccc(-c5nnc[nH]5)nc4C)nc32)C1` [Example 47, 4-(((1S,3R)-3-methoxycyclopentyl)methyl)-6-(2-methyl-6-(4H-1,2,4-triazol-3-yl)pyridin-3-yl)-3,4-dihydropyrazino[2,3-b]pyrazin-2(1H)-one] was tested, and the IC50 was 0.005 to 250 nM.

`COCCCN1CC(=O)Nc2ncc(-c3ccc(C(C)(C)O)nc3)nc21` [Example 114, 6-(6-(2-hydroxypropan-2-yl)pyridin-3-yl)-4-(3-methoxypropyl)-3,4-dihydropyrazino[2,3-b]pyrazin-2(1H)-one] was tested, and the IC50 was 1000 to 10000 nM.

Work on `CO[C@H]1CC[C@@H](N2C(=O)CNc3ncc(-c4ccc(C(C)(C)O)nc4)nc32)C1` [Example 211, 7-(6-(2-hydroxypropan-2-yl)pyridin-3-yl)-1-((1R,3S)-3-methoxycyclopentyl)-3,4-dihydropyrazino[2,3-b]pyrazin-2(1H)-one] yielded an IC50 of 0.005 to 250 nM.

`O=C1CN(C[C@@H]2CCCO2)c2nc(-c3ccc(-c4nnc[nH]4)cc3)cnc2N1` [Example 68, (S)-6-(4-(4H-1,2,4-triazol-3-yl)phenyl)-4-((tetrahydrofuran-2-yl)methyl)-3,4-dihydropyrazino[2,3-b]pyrazin-2(1H)-one] showed an IC50 of 0.005 to 250 nM.

`CO[C@H]1CC[C@H](N2CC(=O)Nc3ncc(-c4cnc(C(N)=O)cc4C)nc32)CC1` [Example 35, 5-(S-(trans-4-methoxycyclohexyl)-6-oxo-5,6,7,8-tetrahydropyrazino[2,3-b]pyrazin-2-yl)-4-methylpicolinamide] gave an IC50 of 0.005 to 250 nM.

For `Cc1cc(-c2nnc[nH]2)ccc1-c1cnc2c(n1)N(Cc1ccccc1)C(=O)CN2` [Example 241, 1-benzyl-7-(2-methyl-4-(4H-1,2,4-triazol-3-yl)phenyl)-3,4-dihydropyrazino[2,3-b]pyrazin-2(1H)-one], the IC50 was 0.005 to 250 nM.

`O=C1CNc2ncc(-c3ccc(-c4nc[nH]n4)nc3)nc2N1[C@H]1CC[C@H](O)CC1` [Example 170, 7-(6-(1H-1,2,4-triazol-3-yl)pyridin-3-yl)-1-(trans-4-hydroxycyclohexyl)-3,4-dihydropyrazino[2,3-b]pyrazin-2(1H)-one] was tested, and the IC50 was 0.005 to 250 nM.

`Cc1nc(-c2nnc[nH]2)ccc1-c1cnc2c(n1)N(C)C(=O)CN2` [Example 197, 1-methyl-7-(2-methyl-6-(4H-1,2,4-triazol-3-yl)pyridin-3-yl)-3,4-dihydropyrazino[2,3-b]pyrazin-2(1H)-one] was tested, and the IC50 was 0.005 to 250 nM.

In the case of `COCCN1c2nc(-c3ccc(-c4nnc[nH]4)cc3C)cnc2NC(=O)C1(C)C` [Example 71, 4-(2-methoxyethyl)-3,3-dimethyl-6-(2-methyl-4-(4H-1,2,4-triazol-3-yl)phenyl)-3,4-dihydropyrazino[2,3-b]pyrazin-2(1H)-one], the IC50 is reported as 0.005 to 250 nM.

`CO[C@@H]1CC[C@@H](N2CC(=O)Nc3ncc(-c4ccc(-c5nnc[nH]5)nc4C)nc32)C1` [Example 40, 4-((1R,3R)-3-methoxycyclopentyl)-6-(2-methyl-6-(4H-1,2,4-triazol-3-yl)pyridin-3-yl)-3,4-dihydropyrazino[2,3-b]pyrazin-2(1H)-one] was tested, and the IC50 was 0.005 to 250 nM.

In the case of `CO[C@H]1CC[C@@H](CN2CC(=O)Nc3ncc(-c4ccc(-c5nc[nH]n5)nc4)nc32)CC1` [Example 7], the IC50 is reported as 0.005 to 250 nM.

Work on `O=C1CN(CCC2CCOCC2)c2nc(-c3ccc4[nH]ncc4c3)cnc2N1` [Example 69, 6-(1H-indazol-5-yl)-4-(2-(tetrahydro-2H-pyran-4-yl)ethyl)-3,4-dihydropyrazino[2,3-b]pyrazin-2(1H)-one] yielded an IC50 of 250 to 500 nM.

For `C[C@@H]1Nc2ncc(-c3ccc(C(C)(C)O)nc3)nc2N(CCC2CCOCC2)C1=O` [Example 267, (S)-7-(6-(2-hydroxypropan-2-yl)pyridin-3-yl)-3-methyl-1-(2-(tetrahydro-2H-pyran-4-yl)ethyl)-3,4-dihydropyrazino[2,3-b]pyrazin-2(1H)-one], the IC50 was 500 to 1000 nM.

`CO[C@H]1CC[C@H](N2CC(=O)Nc3ncc(-c4ccc(C(C)(C)O)cc4)nc32)CC1` [Example 86, 6-(4-(2-hydroxypropan-2-yl)phenyl)-4-(trans-4-methoxycyclohexyl)-3,4-dihydropyrazino[2,3-b]pyrazin-2(1H)-one] gave an IC50 of 0.005 to 250 nM.

For `CO[C@H]1CC[C@H](N2C(=O)CNc3ncc(-c4ccc(-c5nnc[nH]5)nc4C)nc32)C1` [Example 229, 1-((1S,3S)-3-methoxycyclopentyl)-7-(2-methyl-6-(4H-1,2,4-triazol-3-yl)pyridin-3-yl)-3,4-dihydropyrazino[2,3-b]pyrazin-2(1H)-one], the IC50 was 0.005 to 250 nM.

With `O=C1CNc2ncc(-c3cncnc3)nc2N1CCC1CCOCC1` [Example 190, 7-(pyrimidin-5-yl)-1-(2-(tetrahydro-2H-pyran-4-yl)ethyl)-3,4-dihydropyrazino[2,3-b]pyrazin-2(1H)-one] the IC50 was 1000 to 10000 nM.

For `CO[C@@H]1CC[C@@H](N2C(=O)CNc3ncc(-c4ccc(-c5nnc[nH]5)nc4C)nc32)C1` [Example 227, 1-((1R,3R)-3-methoxycyclopentyl)-7-(2-methyl-6-(4H-1,2,4-triazol-3-yl)pyridin-3-yl)-3,4-dihydropyrazino[2,3-b]pyrazin-2(1H)-one], the IC50 was 0.005 to 250 nM.

`O=C1Nc2ncc(-c3ccc(-c4nnc[nH]4)nc3)nc2N2CCOCC12` (stereo not drawn) [Example 92, 9-(6-(4H-1,2,4-triazol-3-yl)-3-pyridyl)-6,11,4a-trihydromorpholino[4,3-e]pyrazino[2,3-b]pyrazin-5-one] was tested, and the IC50 was 500 to 1000 nM.

With `Cc1nc(C(C)(C)O)ccc1-c1cnc2c(n1)N(CC1CCOCC1)CC(=O)N2` [Example 81, 6-(6-(2-hydroxypropan-2-yl)-2-methylpyridin-3-yl)-4-((tetrahydro-2H-pyran-4-yl)methyl)-3,4-dihydropyrazino[2,3-b]pyrazin-2(1H)-one] the IC50 was 0.005 to 250 nM.
